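Results reflect a 48-hour exposure of cells in 96-well plates to compound at five concentrations. TGI is the concentration that stops growth completely.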
Assays:
Test in all cases: NCI tumour cell line growth inhibition, 48 h
[1] = test system: SK-OV-3 ovarian
[2] = test system: ACHN renal
[3] = test system: RPMI-8226 leukemia
[4] = test system: OVCAR-5 ovarian
[5] = test system: HOP-62 NSCLC
[6] = test system: HCT-116 colon
[7] = test system: SF-268 CNS
[8] = test system: DLD-1 colon
[9] = test system: NCI-H522 lung
[10] = test system: OVCAR-8 ovarian
[11] = test system: NCI-H23 lung
[12] = test system: DMS 273 small cell lung
[13] = test system: 786-0 renal
[14] = test system: MOLT-4 leukemia
[15] = test system: K-562 leukemia
[16] = test system: SNB-78 CNS
[17] = test system: HOP-92 NSCLC
[18] = test system: COLO 205 colon
[19] = test system: M19-MEL melanoma
[20] = test system: TK-10 renal
[21] = test system: U251 CNS
[22] = test system: A498 renal
[23] = test system: RXF-631 renal
[24] = test system: LXFL 529 NSCLC
[25] = test system: SNB-75 CNS
[26] = test system: IGROV1 ovarian
[27] = test system: LOX IMVI melanoma
[28] = test system: HL-60(TB) leukemia
[29] = test system: SK-MEL-2 melanoma
[30] = test system: DMS 114 small cell lung
[31] = test system: KM20L2 colon
[32] = test system: KM12 colon
[33] = test system: NCI-H226 lung
[34] = test system: NCI-H460 lung
[35] = test system: HT29 colon
[36] = test system: EKVX NSCLC
[37] = test system: A549 NSCLC
[38] = test system: RXF 393 renal
[39] = test system: OVCAR-3 ovarian
[40] = test system: M14 melanoma
[41] = test system: SF-295 CNS
[42] = test system: HCC-2998 colon
[43] = test system: UACC-62 melanoma
[44] = test system: HCT-15 colon
[45] = test system: SK-MEL-28 melanoma
[46] = test system: SW-620 colon
[47] = test system: MALME-3M melanoma
[48] = test system: SF-539 CNS
[49] = test system: UO-31 renal
[50] = test system: XF 498 CNS
[51] = test system: UACC-257 melanoma
[52] = test system: CCRF-CEM leukemia
[53] = test system: SK-MEL-5 melanoma
[54] = test system: HOP-18 NSCLC
[55] = test system: SNB-19 CNS
[56] = test system: P388 leukemia
[57] = test system: SN12K1 renal
[58] = test system: OVCAR-4 ovarian
[59] = test system: P388/ADR leukemia
[60] = test system: SN12C renal
[61] = test system: CAKI-1 renal
[62] = test system: NCI/ADR-RES ovarian
[63] = test system: MCF7 breast

Structure (SMILES): C/C(CC(=O)Nc1ccc([N+](=O)[O-])cc1)=N\Nc1ccc([N+](=O)[O-])cc1[N+](=O)[O-]
- TGI [1]: > 100 µM
- TGI [2]: > 100 µM
- TGI [3]: > 100 µM
- TGI [4]: > 100 µM
- TGI [5]: > 100 µM
- TGI [6]: > 100 µM
- TGI [7]: > 100 µM
- TGI [8]: > 100 µM
- TGI [9]: 85.5 µM
- TGI [10]: > 100 µM
- TGI [11]: > 100 µM
- TGI [12]: > 100 µM
- TGI [13]: > 100 µM
- TGI [14]: > 100 µM
- TGI [15]: > 100 µM
- TGI [16]: > 100 µM
- TGI [17]: > 100 µM
- TGI [18]: > 100 µM
- TGI [19]: > 100 µM
- TGI [20]: > 100 µM
- TGI [21]: > 100 µM
- TGI [22]: > 100 µM
- TGI [23]: > 100 µM
- TGI [24]: > 100 µM
- TGI [25]: > 100 µM
- TGI [26]: > 100 µM
- TGI [27]: > 100 µM
- TGI [28]: > 100 µM
- TGI [29]: > 100 µM
- TGI [30]: > 100 µM
- TGI [31]: > 100 µM
- TGI [32]: > 100 µM
- TGI [33]: > 100 µM
- TGI [34]: > 100 µM
- TGI [35]: > 100 µM
- TGI [36]: > 100 µM
- TGI [37]: > 100 µM
- TGI [38]: > 100 µM
- TGI [39]: > 100 µM
- TGI [40]: > 100 µM
- TGI [41]: > 100 µM
- TGI [42]: 65.4 µM
- TGI [43]: > 100 µM
- TGI [44]: > 100 µM
- TGI [45]: > 100 µM
- TGI [46]: > 100 µM
- TGI [47]: > 100 µM
- TGI [48]: > 100 µM
- TGI [49]: > 100 µM
- TGI [50]: > 100 µM
- TGI [51]: > 100 µM
- TGI [52]: > 100 µM
- TGI [53]: > 100 µM

Structure (SMILES): CN(C)CCNC(=O)c1cccc2[nH]c(-c3ccc(Cl)cc3)nc12
- TGI [54]: 61.1 µM
- TGI [1]: 25.1 µM
- TGI [3]: 8.78 µM
- TGI [4]: 26.4 µM
- TGI [5]: 22.5 µM
- TGI [6]: 13.8 µM
- TGI [7]: 38.4 µM
- TGI [8]: 24.5 µM
- TGI [55]: 31.5 µM
- TGI [9]: 19.9 µM
- TGI [10]: 20.8 µM
- TGI [11]: 21.5 µM
- TGI [12]: 14.3 µM
- TGI [14]: 5.5 µM
- TGI [15]: 12.6 µM
- TGI [16]: 37.7 µM
- TGI [17]: 17 µM
- TGI [18]: 9.29 µM
- TGI [19]: 19.7 µM
- TGI [56]: 14.5 µM
- TGI [21]: 18 µM
- TGI [22]: 24 µM
- TGI [57]: 14.8 µM
- TGI [58]: 21.2 µM
- TGI [59]: 18.4 µM
- TGI [25]: 15.3 µM
- TGI [60]: 19.4 µM
- TGI [26]: 25.8 µM
- TGI [27]: 13.8 µM
- TGI [28]: 12 µM
- TGI [29]: 26.5 µM
- TGI [30]: 21.7 µM
- TGI [31]: 18.6 µM
- TGI [32]: 20.9 µM
- TGI [33]: 14.4 µM
- TGI [34]: 13.2 µM
- TGI [35]: 16.6 µM
- TGI [36]: 34.3 µM
- TGI [37]: 17.7 µM
- TGI [38]: 21.3 µM
- TGI [39]: 27.7 µM
- TGI [41]: 21.3 µM
- TGI [42]: 16.9 µM
- TGI [43]: 17.5 µM
- TGI [44]: 19.9 µM
- TGI [61]: 12.8 µM
- TGI [45]: 31.9 µM
- TGI [62]: 21 µM
- TGI [46]: 18.3 µM
- TGI [47]: 19.9 µM
- TGI [48]: 16.9 µM
- TGI [49]: 12.1 µM
- TGI [50]: 17.6 µM
- TGI [51]: 20.4 µM
- TGI [52]: 35.7 µM
- TGI [63]: 15.8 µM
- TGI [53]: 16.7 µM
